Data reported in US9006271B2, “5-[5-[2-(3,5-bis(trifluoromethyl)phenyl)-2-methylpropanomethylpropanoylmethylamino]-4-(4-fluoro-2-methylphenyl)]-2-pyridinyl-2-alkyl-prolinamide as NK1 receptor antagonists” (Nerre Therapeutics Limited, priority 2008, dated 2015).
Structures can show the parent of a compound that is named as a salt.

Tests used:
NK1 receptor = biological target: T1, NK1 receptor (Meriones unguiculatus, UniProt Q5DUB1); assay: gerbil foot tapping model (GR73632-induced, icv); format: in vivo
T1 construct: from tissue; host or cells: living gerbil, central nervous system (in vivo)
From the text: The ability of the compounds of the invention to penetrate the central nervous system and to bind at the NK1 receptor may be determined using the gerbil foot tapping model as described by Rupniak & Williams, Eur. Jour. of Pharmacol., 1994.
Intracerebroventricular (icv) administration of the NK1 receptor agonist GR73632 (R. M. Hagan et al., Neuropeptides 1991, 19 (2), 127-135) a characteristic hind leg foot tapping (GFT) response in gerbils which can be inhibited by potent NK1 receptor antagonists. The gerbil foot tapping paradigm was carried out as follows; gerbils were dosed with compound of the invention, and following an appropriate pre-treatment time were anaesthetised using isofluorane/oxygen mixture. The skull was then exposed and 5 ul of GR73632 (3 pmol conc.) was injected by insertion of a cuffed 25 G needle to a depth of 4 mm below bregma, directly into the lateral ventricle (intracerebroventricular dosing). Immediately following the injection, gerbils were placed individually into a clear observation box to recover. Upon the gerbil regaining its righting reflex, the duration of repetitive hind foot tapping was recorded over a 5 minute period. […]

common marmosets = assay: marmoset human threat test; format: in vivo, common marmoset; conditions: for No. jumps (index of locomotor activity): 1 h before test, mean±SEM n=4, vehicle 16.3 ± 1.7
Protocol: For example the marmoset human threat test (Costall et al., 1988 The study utilised in house laboratory-bred male and female common marmosets over 2 years of age, weighing 300-500 g. The animals were caged in couples, in a housing room maintained at 25±1° C., 60% humidity and a 12 hour light/dark cycle (lights on at 0600, with 30 min simulated dawn and twilight). Testing was carried out with the animals situated in the home cage. One hour before the test animals were treated orally with vehicle (0.5% HPMC) or test compound (1 ml/kg). After a wash-out period of at least three days, treatments were reassigned and the study was complete when all animals had received all treatments. Number of specific behavioural postures in response to the human threat and the number of jumps were analysed in this study. The postures recorded in the test were those described by Costall et al (1988). and the number of jumps from the back of the cage to the cage front provided an index of locomotor activity to assess potential for sedation or locomotor stimulation. […] Results are expressed as mean±SEM (n=7). of number of postures and as a mean±SEM (n=4) of number of jumps. Data were subjected to one-way analysis of variance (ANOVA) followed by Dunnett's test, comparing each compound dose with vehicle treatment, using Statistica software (version 8.0) Statistically significant differences with respect to vehicle are indicated as *P<0.01.

T1 sequence (Q5DUB1 whole entry): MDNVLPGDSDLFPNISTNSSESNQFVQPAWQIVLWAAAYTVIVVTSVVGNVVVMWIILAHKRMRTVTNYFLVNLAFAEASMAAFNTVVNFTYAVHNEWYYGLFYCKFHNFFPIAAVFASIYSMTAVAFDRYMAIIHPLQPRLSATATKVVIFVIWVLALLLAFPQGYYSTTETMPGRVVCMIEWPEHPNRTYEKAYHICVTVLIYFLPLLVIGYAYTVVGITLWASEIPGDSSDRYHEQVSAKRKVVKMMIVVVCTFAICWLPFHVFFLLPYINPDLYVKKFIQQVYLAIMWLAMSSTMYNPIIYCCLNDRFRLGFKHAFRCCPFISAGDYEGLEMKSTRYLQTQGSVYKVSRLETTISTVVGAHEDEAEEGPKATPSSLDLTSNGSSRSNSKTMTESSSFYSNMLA

Compound: Cc1cc(F)ccc1-c1cc([C@H]2CC[C@](C)(C(N)=O)N2)ncc1N(C)C(=O)C(C)(C)c1cc(C(F)(F)F)cc(C(F)(F)F)c1 [Example 11, (5R)-5-[5-[{2-[3,5-bis(trifluoromethyl)phenyl]-2-methylpropanoyl}(methyl)amino]-4-(4-fluoro-2-methylphenyl)-2-pyridinyl]-2-methyl-D-prolinamide bis-hydrochloride]
- GR73632-induced foot tapping behaviour (NK1 receptor; 0.3, 1.0 and 3.0 mg/kg p.o., P<0.01): significantly attenuated
- ID50 as plasma concentration (NK1 receptor; plasma, p.o.): approximately 5 ng/ml
- No. jumps (index of locomotor activity) (common marmosets; 0.1 mg/kg oral): 20.1 ± 2.1
- No. jumps (index of locomotor activity) (common marmosets; 0.3 mg/kg oral): 13.4 ± 2.5
- No. jumps (index of locomotor activity) (common marmosets; 1 mg/kg oral): 13.0 ± 2.1
- effect on number of jumps (common marmosets; 0.1, 0.3 or 1 mg/kg oral): not accompanied by a reduction in the number of jumps
- effect on number of postures (common marmosets; 0.1, 0.3 or 1 mg/kg oral, significant at 0.3 and 1 mg/kg (P<0.01)): dose dependent reduction in the number of postures
